From patent US20060263368A1, “Targeted chimeric molecules for cancer therapy” (Research Development Foundation, priority 2005, published 2006)

Columns and labels:
[1] = system: Capan-2; assay: In vitro cytotoxicity and combination study, crystal violet; format: cell-based, human; conditions: 72 hr of exposure
Description: (§1) If CI near to 1 indicates additive effect (ADD), CI>1 indicates antagonism (ANT), CI<1 indicates synergism (SYN).

[2] = system: AsPc-1; assay: as above; format: cell-based, human; conditions: 72 hr of exposure
Description: as §1

[3] = system: L3.6pl; assay: as above; format: cell-based, human; conditions: 72 hr of exposure
Description: as §1

[4] = system: Capan-1; assay: as above; format: cell-based, human; conditions: 72 hr of exposure
Description: as §1

[5] = system: L3.6pl cells; assay: Western blot of signal transduction effects; format: cell-based, human; design: key to Caspase-8 cleavage / Caspase-3 cleavage / PARP cleavage / Akt / p-Akt / Bcl-2: NE represents no effect; conditions: IC25 doses
Method: Cell lysates ([…]) were fractionated by 8-15% SDS-PAGE and transferred on Immobilon-P nitrocellulose membranes (Schleicher & Schuell Inc., Keene, N.H.). Membranes were blocked for 2 hours in Tris-buffered saline (TBS) containing 3% bovine serum albumin. Monoclonal anti-HER-2/neu Ab (Oncogene Research Products, San Diego, Calif.), rabbit polyclonal anti-HER-1 Ab, rabbit polyclonal anti-TNFR-1 Ab, rabbit polyclonal anti-TNFR-2 Ab, rabbit polyclonal anti-phospho Akt Ab, rabbit polyclonal anti-Akt, and goat anti-β-actin Ab were used for immunoblotting. Goat anti-mouse/goat anti-rabbit or swain anti-goat antibodies conjugated with horseradish peroxidase (Bio-Rad Laboratories, Hercules, Calif.) were used to visualize immunoreactive proteins at a 1:4000 dilution using ECL detection reagent (Amersham Pharmacia Biotech Inc., Piscataway, N.J.).
HER-2/neu over-expression results in activation of different downstream pathways such as the Akt kinase pathway, which leads to cell proliferation and cell survival. […] The activation of Akt kinase was then assessed by Western blot analysis using antibodies to Akt and to phospho-Akt. […]
To determine whether caspase-8 and caspase-3 were activated in L3.6pl cells during 5-FU+scFv23/TNF-induced cell death, the cleavage of caspase-8, caspase-3, and its substrate poly (ADP)-ribose polymerase (PARP) was investigated.

[6] = system: A375-M Cells; assay: Combination studies of GrB/scFvMEL with chemotherapeutic agents; conditions: for antitumor activity on co-administration with GrB/scFvMEL: 72 hours
Method: Cells in exponential growth phase were plated into 96-well plates. After 24 hr, the cells were treated with drug-containing medium. At the end of the indicated incubation period, growth inhibition was assessed by crystal violet staining. In order to determine the effects of sequencing, cells were treated with different two sequences.
I.C.25 dose of either GrB/scFvMEL or chemotherapeutic agents have been used in combination studies.

[7] = system: AsPc-1, Capan-1, Capan-2, and L3.6pl; assay: cells; conditions: Homo sapiens, Pancreatic cancer cell
Method: (§4) To examine the potential mediation of the synergistic effect of combination treatments by activation of caspase-3 cells were pretreated with or without 100 μM caspase-3 inhibitor (Ac-DEVD-CHO) for 3 hr and then treated with their individual IC25 concentrations. After incubation for an additional 72 hr, remaining adherent cells were stained by adding 50 μl of crystal violet solution (0.5% w/v in 20% MeOH/H2O). Dye-stained cells were solubilized by addition of 100 μl of Sorenson's buffer [100 mM sodium citrate (pH 4.2) in 50% ethanol], and absorbance was measured at 630 nm using an ELISA plate reader (Bio-Tek Instruments, Inc., Winooski, Vt.).

[8] = system: AsPc-1, Capan-1, Capan-2, and L3.6pl; conditions: pancreatic cancer cell lines
Method: as §4

[9] = system: parental A375 cells; assay: Cytotoxicity on parental and doxorubicin-resistant cells; format: cell-based; conditions: Homo sapiens, A-375; 72 hours
Method: (§2) To examine the cytotoxicity of GrB/scFvMEL or MEL/sFv/rGel, melanoma cells were plated on 96-well plates at a density of 4×10^3 cells per well and allowed to adhere for 24 hr at 37° C. in 5% CO2. After 24 hr, the medium was replaced with medium that contained various concentrations of fusion proteins. […] The percent of control refers to the percentage of cells in the drug-treated wells compared to that of control (untreated) wells.
(§3) Expression of the gp240 antigen was assessed by ELISA using ZME-018 antibody specifically recognizing gp240 antigen.

[10] = system: A375 doxorubicin-resistant (A375DR); assay: as above; format: cell-based; conditions: Homo sapiens, A-375; 72 hours
Method: as §2, §3

[11] = target: gp240 antigen (high-molecular-weight glycoprotein gp240 on human melanoma cells) (human) (UniProt Q6UVK1); assay: cell-based or functional assay
[12] = target: gp240 antigen (high-molecular-weight glycoprotein gp240 on human melanoma cells) (human) (UniProt Q6UVK1); assay: flow cytometry on MEL-526 cells stained with ZME-018 IgG2a and APC goat anti-mouse, against an isotype control
[13] = target: gp240 antigen (high-molecular-weight glycoprotein gp240 on human melanoma cells) (human) (UniProt Q6UVK1); assay: flow cytometry on TXM-1 cells (very low gp240) stained with ZME-018 IgG2a and APC goat anti-mouse, against an isotype control
[14] = target: gp240 antigen (high-molecular-weight glycoprotein gp240 on human melanoma cells) (human) (UniProt Q6UVK1); assay: flow cytometry on A375-M cells stained with ZME-018 IgG2a and APC goat anti-mouse, against an isotype control
[15] = target: gp240 antigen (high-molecular-weight glycoprotein gp240 on human melanoma cells) (human) (UniProt Q6UVK1); assay: flow cytometry on TXM-18L cells stained with ZME-018 IgG2a and APC goat anti-mouse, against an isotype control
[16] = system: HER-2-overexpressing SKBR-3/H cells; assay: Western blot, DNA fragmentation, TUNEL: signal transduction effects; format: cell-based, human; design: key to Akt / Caspase-8 cleavage / Caspase-3 cleavage / PARP cleavage / DNA fragmentation / IκB-α / TRADD / TRAF-2: NE represents no effect; conditions: 200 nM
Method: Apoptosis was detected by DNA fragmentation and TUNEL assay. […] After 24 hr and 48 hr, cells were washed with PBS, resuspended in a DNA extraction buffer containing 5 mM Tris-HCl, pH 8, 50 mM EDTA, 10 μg/ml RNAse, and 0.25% SDS and then incubated for 1 hr at 37° C. To remove protein, resuspended cell lysates were treated with 100 μg/ml proteinase K for 3 hr at 50° C. DNA was extracted using phenol and chloroform followed by ethanol precipitation. The genomic DNA was resuspended in Tris-EDTA (pH 8) and was fractionated by electrophoresis on a 1% agarose gel containing ethidium bromide.
The cells were washed with PBS, permeabilized (0.1% Triton X-100, 0.1% sodium citrate), and then fixed in 4% paraformaldehyde. Fixed cells were stained with in situ cell death detection kit (Roche). Cells undergoing apoptosis were identified by fluorescence microscopy.
After treatment, cells were washed twice with phosphate buffered saline (PBS) and lysed on ice for 20 min in 0.3 ml of lysis buffer (10 mM Tris-HCl, pH 8, 60 mM KCl, 1 mM EDTA, 1 mM DTT, 0.2% NP-40). Cell lysates (50 μg) were fractionated by 8-15% SDS-PAGE and electrophoretically transferred to Immobilon-P nitrocellulose membranes (Schleicher & Schuell Inc., Keene, N.H.). Membranes were blocked 2 hrs in Tris-buffered saline (TBS) containing 3% bovine serum albumin and then probed with various antibodies (monoclonal anti-HER-2/neu Ab, rabbit polyclonal anti-TNFR1 Ab, rabbit polyclonal anti-TNFR2 Ab, rabbit polyclonal anti-caspase-8 Ab, monoclonal anti-caspase-3 Ab, monoclonal anti-PARP Ab, rabbit polyclonal anti-TRADD Ab, rabbit polyclonal anti-TRAF2 Ab, rabbit polyclonal anti-IκB-α Ab, rabbit polyclonal anti-phospho Akt Ab, and rabbit polyclonal anti-Akt Ab). Goat anti-mouse/goat anti-rabbit or swain anti-goat antibodies conjugated with horseradish peroxidase (Bio-Rad Laboratories, Hercules, Calif.) were used to visualize immunoreactive proteins at a 1:4000 dilution using ECL detection reagent (Amersham Pharmacia Biotech Inc., Piscataway, N.J.).

[17] = Seq. III: pretreated with GrB/scFvMEL for 6 h, then agent for 72 h
[18] = Seq. IV: agent for 72 h without GrB/scFvMEL pretreatment

Sequence of gp240 antigen (high-molecular-weight glycoprotein gp240 on human melanoma cells) (human) (Q6UVK1 30-2322): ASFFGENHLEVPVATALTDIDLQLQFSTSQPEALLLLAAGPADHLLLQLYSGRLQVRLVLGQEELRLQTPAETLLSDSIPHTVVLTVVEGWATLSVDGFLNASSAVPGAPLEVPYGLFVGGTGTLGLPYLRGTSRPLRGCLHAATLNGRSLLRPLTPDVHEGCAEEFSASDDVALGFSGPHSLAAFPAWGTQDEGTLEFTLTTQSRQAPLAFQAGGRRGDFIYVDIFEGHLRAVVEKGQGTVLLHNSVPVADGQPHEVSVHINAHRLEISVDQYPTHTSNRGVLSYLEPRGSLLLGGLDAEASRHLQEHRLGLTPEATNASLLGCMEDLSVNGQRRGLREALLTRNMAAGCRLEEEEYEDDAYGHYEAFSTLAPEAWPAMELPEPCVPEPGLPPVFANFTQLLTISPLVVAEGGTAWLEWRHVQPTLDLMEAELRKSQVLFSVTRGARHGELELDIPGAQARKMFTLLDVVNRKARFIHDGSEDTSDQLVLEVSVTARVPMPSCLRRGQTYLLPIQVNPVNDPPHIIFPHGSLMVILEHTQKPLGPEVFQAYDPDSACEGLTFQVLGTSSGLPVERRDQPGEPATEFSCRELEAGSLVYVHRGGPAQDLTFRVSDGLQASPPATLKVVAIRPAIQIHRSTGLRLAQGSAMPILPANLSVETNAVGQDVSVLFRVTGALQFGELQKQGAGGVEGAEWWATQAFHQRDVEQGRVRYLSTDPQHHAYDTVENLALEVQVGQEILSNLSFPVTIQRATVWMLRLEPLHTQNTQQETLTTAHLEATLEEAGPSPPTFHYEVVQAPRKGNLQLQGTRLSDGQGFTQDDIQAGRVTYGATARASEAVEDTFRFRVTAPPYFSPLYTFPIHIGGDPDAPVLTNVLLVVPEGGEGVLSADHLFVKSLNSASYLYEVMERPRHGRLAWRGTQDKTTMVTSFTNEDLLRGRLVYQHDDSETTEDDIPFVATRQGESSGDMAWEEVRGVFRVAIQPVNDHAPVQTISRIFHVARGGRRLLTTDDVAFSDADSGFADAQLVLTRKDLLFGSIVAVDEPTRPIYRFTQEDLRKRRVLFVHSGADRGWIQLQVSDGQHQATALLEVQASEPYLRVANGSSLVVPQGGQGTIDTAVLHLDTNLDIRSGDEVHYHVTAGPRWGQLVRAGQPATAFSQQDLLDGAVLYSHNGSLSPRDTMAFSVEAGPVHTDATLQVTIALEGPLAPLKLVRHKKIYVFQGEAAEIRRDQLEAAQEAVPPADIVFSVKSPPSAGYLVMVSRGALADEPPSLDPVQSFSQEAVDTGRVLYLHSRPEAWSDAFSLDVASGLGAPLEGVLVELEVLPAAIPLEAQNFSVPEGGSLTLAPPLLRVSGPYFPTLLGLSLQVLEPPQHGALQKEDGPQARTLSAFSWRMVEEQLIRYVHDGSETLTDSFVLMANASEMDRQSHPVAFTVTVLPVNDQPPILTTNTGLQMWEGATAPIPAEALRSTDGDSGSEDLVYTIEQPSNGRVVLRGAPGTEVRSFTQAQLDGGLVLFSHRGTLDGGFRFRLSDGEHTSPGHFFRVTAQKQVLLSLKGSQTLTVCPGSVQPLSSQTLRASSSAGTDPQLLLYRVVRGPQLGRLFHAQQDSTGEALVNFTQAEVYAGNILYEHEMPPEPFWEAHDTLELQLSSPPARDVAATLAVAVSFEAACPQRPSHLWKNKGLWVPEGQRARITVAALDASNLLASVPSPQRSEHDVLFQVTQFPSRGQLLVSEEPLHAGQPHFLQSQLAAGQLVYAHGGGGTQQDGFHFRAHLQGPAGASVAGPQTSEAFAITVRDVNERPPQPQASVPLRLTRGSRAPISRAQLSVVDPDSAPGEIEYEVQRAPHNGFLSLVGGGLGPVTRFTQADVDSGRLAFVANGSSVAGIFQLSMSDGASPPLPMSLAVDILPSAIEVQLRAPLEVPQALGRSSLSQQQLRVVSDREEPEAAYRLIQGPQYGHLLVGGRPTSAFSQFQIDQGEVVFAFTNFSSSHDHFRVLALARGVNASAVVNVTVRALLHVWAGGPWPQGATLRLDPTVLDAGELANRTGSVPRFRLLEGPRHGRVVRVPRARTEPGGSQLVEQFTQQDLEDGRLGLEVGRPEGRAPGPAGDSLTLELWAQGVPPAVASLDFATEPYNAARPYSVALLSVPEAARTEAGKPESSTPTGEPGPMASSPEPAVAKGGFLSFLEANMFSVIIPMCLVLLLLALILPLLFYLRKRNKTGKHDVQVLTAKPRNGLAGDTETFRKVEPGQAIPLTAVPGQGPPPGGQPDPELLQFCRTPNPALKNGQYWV

Work on `O=c1[nH]cc(F)c(=O)[nH]1` [5-Fluorouracil, 5-fluorouracil] yielded an IC50 ([1]; Homo sapiens, Capan-2) of 300000 nM, an IC50 ([2]; Homo sapiens, ASPC1) of 7500 nM and an IC50 ([3]; Homo sapiens, L3.6pl) of 1000 nM. For the same molecule, the IC50 ([4]; Homo sapiens, CAPAN-1) was 6000 nM, the Akt [5] was “NE” and the Bcl-2 [5] was “NE”. The “inhibition of Bcl-2 expression levels” value [5] was “no impact”, the p-Akt [5] was “NE” and the Caspase-3 cleavage ([5]; 48 hr) was “NE”. For the same molecule, the Caspase-8 cleavage ([5]; 48 hr) was “NE”, the PARP cleavage ([5]; 48 hr) was “NE” and the “antitumor activity on co-administration with GrB/scFvMEL” value (“antitumor activity … with GrB/scFvMEL” below) [6] was “additive”. For the same molecule, the “% cytotoxicity” value [6, 17] was 44.43 ± 2.118%, the “% cytotoxicity” value [6, 18] was 21.90 ± 0.794% and the IC50 [7] was 1000 to 300000 nM.

In the case of `Nc1ccn([C@@H]2O[C@H](CO)[C@@H](O)[C@@H]2O)c(=O)n1` [Ara C, cytarabine], the “antitumor activity … with GrB/scFvMEL” value [6] is reported as “additive”, the “% cytotoxicity” value [6, 17] is reported as 68.70 ± 0.950% and the “% cytotoxicity” value [6, 18] is reported as 62.10 ± 1.054%.

`N.N.[Cl][Pt][Cl]` [Cisplatin] gave an IC50 [1] of 50000 nM, an IC50 [2] of 14000 nM and an IC50 [3] of 3600 nM. For the same molecule, the IC50 [4] was 4500 nM, the “antitumor activity … with GrB/scFvMEL” value [6] was “synergistic” and the “cytotoxic effect of agent combined with scFv23/TNF” value [8] was “antagonistic cytotoxic effects in 3/4 cell lines”.

Work on `COc1cccc2c1C(=O)c1c(O)c3c(c(O)c1C2=O)C[C@@](O)(C(=O)CO)C[C@@H]3O[C@H]1C[C@H](N)[C@H](O)[C@H](C)O1` [Doxorubicin] yielded an IC50 ([1]; Homo sapiens, Capan-2) of 500 nM, an IC50 ([2]; Homo sapiens, ASPC1) of 320 nM and an IC50 ([3]; Homo sapiens, L3.6pl) of 30 nM. For the same molecule, the IC50 ([4]; Homo sapiens, CAPAN-1) was 60 nM, the “antitumor activity … with GrB/scFvMEL” value [6] was “synergistic” and the “% cytotoxicity” value [6, 17] was 33.73 ± 1.590%. The “% cytotoxicity” value [6, 18] was 30.33 ± 1.093%, the IC50 [9] was 0.5 nM and the IC50 [10] was 200 nM. The IC50 [7] was 6 to 700 nM.

Molecule `COc1cc([C@@H]2c3cc4c(cc3[C@@H](O[C@@H]3O[C@@H]5CO[C@@H](C)O[C@H]5[C@H](O)[C@H]3O)[C@H]3COC(=O)[C@H]23)OCO4)cc(OC)c1O` [Etoposide] has an IC50 ([1]; Homo sapiens, Capan-2) of 40000 nM, an IC50 ([2]; Homo sapiens, ASPC1) of 28000 nM and an IC50 ([3]; Homo sapiens, L3.6pl) of 2000 nM. For the same molecule, the IC50 ([4]; Homo sapiens, CAPAN-1) was 2000 nM, the “antitumor activity … with GrB/scFvMEL” value [6] was “additive” and the “% cytotoxicity” value [6, 17] was 59.80 ± 1.986%. For the same molecule, the “% cytotoxicity” value [6, 18] was 51.27 ± 1.102% and the IC50 [7] was 1000 to 300000 nM.

`Nc1ccn([C@@H]2O[C@H](CO)[C@@H](O)C2(F)F)c(=O)n1` [Gemcitabine] showed an IC50 ([1]; Homo sapiens, Capan-2) of 150 nM, an IC50 ([2]; Homo sapiens, ASPC1) of 200 nM and an IC50 ([3]; Homo sapiens, L3.6pl) of 6 nM. The IC50 ([4]; Homo sapiens, CAPAN-1) was 20 nM, the “cytotoxic effect of agent combined with scFv23/TNF” value [8] was “antagonistic cytotoxic effects in 3/4 cell lines” and the IC50 [7] was 6 to 700 nM.

`CC[C@]1(O)C[C@H]2CN(CCc3c([nH]c4ccccc34)[C@@](C(=O)OC)(c3cc4c(cc3OC)N(C=O)[C@H]3[C@@](O)(C(=O)OC)[C@H](OC(C)=O)[C@]5(CC)C=CCN6CC[C@]43[C@@H]65)C2)C1` [VCR, vincristine] was tested, and the “antitumor activity … with GrB/scFvMEL” value [6] was “synergistic”.

“GrB/scFvMEL fusion construct (from UniProt P10144 21-247)” gave an I.C.50, 72-h cytotoxicity (crystal violet), A375-M cells [11] of 32.1 nM, an I.C.50, 72-h cytotoxicity (crystal violet), MEL-526 cells [11] of 50 nM and an I.C.50, 72-h cytotoxicity (crystal violet), TXM-1 cells (very low-level gp240 expression) [11] greater than 1 µM. It also gave an I.C.50, 72-h cytotoxicity (crystal violet), TXM-13 cells [11] of 200 nM and an I.C.50, 72-h cytotoxicity (crystal violet), TXM-18L cells [11] of 158 nM.

Molecule monoclonal antibody ZME-018 IgG2a has a Gp240 Antigen % positive [12] of 97.8%, a Gp240 Antigen % positive [13] of 4.6% and a Gp240 Antigen % positive [14] of 98.9%. It also gave a Gp240 Antigen % positive [15] of 40.9%.

B1: scFv23: single chain antibody recognizing the cell surface domain of HER-2/neu (protein)
scFv: DVQLTQSPAILSASPGEKVTMTCRATPSVSYMHWYQQKPGSSPKPWIYTTSNLASGVPARFSGGGSGTSYSLTVSRVEAEDAATYYCQQWSRSPPTFGGGSKLEIKGSTSGSGKSSEGKGVQLQESGPEVVKPGGSMKISCKTSGYSFTGHTMNWVKQSHGKNLEWIGLINPYNGDTNYNQKFKGKATFTVDKSSSTAYMELLSLTSEDSAVYYCARRVTDWYFDVWGAGTTVTVSS
B1 was tested, and the Akt [16] was “NE”, the Caspase-3 cleavage [16] was “NE” and the Caspase-8 cleavage [16] was “NE”. For the same molecule, the DNA fragmentation [16] was “NE”, the IκB-α [16] was “NE*” and the PARP cleavage [16] was “NE”. For the same molecule, the TRADD [16] was “NE”, the TRAF-2 [16] was “NE” and the p-Akt [16] was “↑”.
